Source: patent US20220332774A1, “THERAPEUTIC MITOCHONDRIAL PEPTIDES” (priority 2019, published 2022)

Columns and labels:
3T3-L1 Mouse Adipocytes = assay: Free fatty acid levels in cultured 3T3-L1 mouse adipocytes (isoproterenol stimulated); assay type: cell-based; settings: for Percent of Isoproterenol Control Activity: free fatty acid in medium, 5 μM peptide, 20-22 h pre-incubation then 3 h with 0.1 nM isoproterenol, isoproterenol alone = 100%
Experimental: The effect of the peptides on fatty acid metabolism can be assessed using an assay to monitor free fatty acid levels produced by cultured cells such as mouse adipocytes. Peptide arrays were initially prepared as 5 mM stock in DMSO and diluted to 0.5 mM in H2O; peptides were used at a final concentration of 5 μM (0.1% DMSO). Calculations for peptide concentrations based on approximate molecular weight of 2000 Daltons. […] Mouse 3T3-L1 cells purchased from ZenBio (Research Triangle Park, NC) were seeded at 3,000 cells per well in 96-well plates in Pre-adipocyte Medium (Zen-Bio) and grown to confluence at 37° C. in a humidified atmosphere of 5% CO2/95% air. Two days after confluence, cells were placed in Adipocyte Differentiation Medium (Zen-Bio) and cultured for three additional days at 37° C. in a humidified atmosphere of 5% CO2/95% air. The culture medium was then replaced with Adipocyte Maintenance Medium (Zen-Bio) and the cells maintained for an additional 9 days at 37° C. in a humidified atmosphere of 5% CO2/95% air with partial medium replacement every other day. Following 12 days of differentiation, medium was replaced Adipocyte Maintenance Medium without insulin and the cultures placed at 37° C. in a humidified atmosphere of 5% CO2/95% air. On day 13 of differentiation, test peptides were added directly to each well (without replacing the medium) at a final concentration of 5 μM in 0.1% DMSO and incubated for 20-22 hours at 37° C. in a humidified atmosphere of 5% CO2/95% air. […] Cells were incubated for 3 hours in Assay Buffer (Zen-Bio) at 37° C. in a humidified atmosphere of 5% CO2/95% air. Following 3 h incubation, conditioned medium from each well was transferred to a fresh 96-well plate. Free fatty acid concentrations in the medium were determined using a Free Fatty Acid Assay kit (Zen-Bio) according to the manufacturer's instructions; absorbance was measured using a Cytation 3 plate reader at 540 nm (BioTek, Winooski, Vt.). Treatment with 0.1 nM isoproterenol alone was used as the free fatty acid level stimulatory control. Absorbance values were expressed as percent control activity relative to 0.1 nM isoproterenol alone treated cells, 100%. The relative standard deviation of the isoproterenol control was <10%. Insulin at 0.25 nM was used as a potent control for decreasing free fatty acid levels. […] Data presented are representative values from 2 independent experiments with each data point performed in triplicate in each independent experiment.

C2C12 Cells = assay: Glucose utilization in cultured C2C12 cells (myotubes); assay type: cell-based, mouse; settings: 22 h; for Percent of Control Activity: glucose concentration in medium relative to untreated cells, 5 μM peptide
Experimental: The effect of the peptides on glucose homeostasis can be assessed using an assay to monitor glucose utilization by cultured cells such as mouse myotubes. Peptide arrays were initially prepared as 5 mM stock in DMSO and diluted to 0.5 mM in H2O; peptides were used at a final concentration of 5 μM (0.1% DMSO). Calculations for peptide concentrations based on approximate molecular weight of 2000 Daltons. C2C12 mouse muscle cell line was purchased from Millipore Sigma (Saint Louis, Mo.). C2C12 cells were seeded in standard medium (DMEM/low glucose (1 g/L)+10% Fetal Bovine Serum+antibiotics) at 7,500 cells/well on 96-well plates and grown to confluence at 37° C. in a humidified atmosphere of 5% CO2/95% air. Three days after plating the medium was removed and with Differentiation Medium (DMEM/low glucose (1 g/L)+2% Horse Serum+antibiotics) added. The cultures were placed at 37° C. in a humidified atmosphere of 5% CO2/95% air for 5 days with partially replacement of medium daily. After 5 days of differentiation, the medium was removed from myotube cultures and replaced with Assay Medium (DMEM/low glucose (1 g/L)+antibiotics). Culture were placed at 37° C. in a humidified atmosphere of 5% CO2/95% air for 5 h. Following the 5 h incubation the medium was removed and fresh Assay Medium containing compounds was added; 5 μM peptide or 1 mM metformin as a potent stimulator of glucose utilization. Cells were incubated for 22 h at 37° C. in a humidified atmosphere of 5% CO2/95% air. Following 22 h incubation, conditioned medium from each well was transferred to a fresh 96-well plate. Glucose concentrations in the medium were determined using a Glucose Assay kit (Abcam; Cambridge, Mass.) according to the manufacturer's instructions; absorbance measured using a Cytation 3 plate reader at 570 nm (BioTek, Winooski, Vt.). Untreated cells were used as reference for basal glucose utilization. Absorbance values were expressed as percent control activity relative to untreated treated cells for 5 μM peptide. The relative standard deviation from plate to plate of untreated control was <10%. […] Data presented are representative values from 2-3 independent experiments with each data point performed in triplicate in each independent experiment.

H4-IIE Cells = assay: Glucose production in cultured H4-IIE cells; assay type: cell-based, rat; settings: 24 h; for Percent of Control Activity: glucose concentration in medium relative to untreated cells, 5 μM peptide
Experimental: The effect of the peptides on glucose homeostasis can be assessed using an assay to monitor glucose production by cultured cells such as rat hepatocytes. Peptide arrays were initially prepared as 5 mM stock in DMSO and diluted to 0.5 mM in H2O; peptides were used at a final concentration of 5 μM (0.1% DMSO). Calculations for peptide concentrations based on approximate molecular weight of 2000 Daltons. H4-IIE rat hepatic cell line was purchased from American Type Culture Collection (Manassas, Va.). H4-IIE cells were seeded in standard medium (DMEM/high glucose+10% Fetal Bovine Serum+antibiotics) at 100,000 cells/well on 96-well plates and allowed to adhere overnight at 37° C. in a humidified atmosphere of 5% CO2/95% air. 24 h after seeding, the medium was removed, cells were rinsed with glucose free DMEM, and the medium replaced with Glucose Production Medium (glucose free DMEM+2 mM sodium pyruvate+10 mM sodium lactate+antibiotics). The cultures were placed at 37° C. in a humidified atmosphere of 5% CO2/95% air overnight. The next morning, the medium was removed and fresh Glucose Production Medium containing compounds was added; 5 uM peptide or 0.5-1 nM insulin as a potent inhibitor of glucose production. Cells were incubated for 24 h at 37° C. in a humidified atmosphere of 5% CO2/95% air. Following 24 h incubation, conditioned medium from each well was transferred to a fresh 96-well plate. Glucose concentrations in the medium were determined using a Glucose Assay kit (Abcam; Cambridge, Mass.) according to the manufacturer's instructions; absorbance measured using a Cytation 3 plate reader at 570 nm (BioTek, Winooski, Vt.). Untreated cells were used as reference for maximal glucose production. Absorbance values were expressed as percent control activity relative to untreated treated cells for 5 μM peptide. The relative standard deviation from plate to plate of untreated control was <25%. […] Glucose levels for 0.5-1 nM insulin treatment were <5% of the untreated control value. Data are presented as representative values from 2-3 independent experiments with each data point performed in triplicate in each independent experiment.

Compound	Percent of Isoproterenol Control Activity (3T3-L1 Mouse Adipocytes) [%]	Percent of Control Activity (C2C12 Cells) [%]	Percent of Control Activity (H4-IIE Cells) [%]	reduction of extracellular glucose compared to untreated controls (C2C12 Cells; metformin 1 mM, across all plates)	Free fatty acid levels (3T3-L1 Mouse Adipocytes; insulin 0.25 nM with 0.1 nM isoproterenol, 3 h)	Glucose levels, % of the untreated control value (H4-IIE Cells; 0.5-1 nM insulin) [%]
1 (MAAAPSGCPDPTS) [compound 1]	85	99	128	–	–	–
2 (MAASVERGFIFLV) [compound 2]	93	99	119	–	–	–
3 (MAGGFMLMIVVMKLMAPKMEETPA) [compound 3]	91	94	118	–	–	–
4 (MAHTFPLNKTSR) [compound 4]	80	101	116	–	–	–
5 (MAHYSQIPSRPHGWPPSD) [compound 5]	98	101	122	–	–	–
6 (MAIAVVYPKTTIIPPK) [compound 6]	80	100	122	–	–	–
8 (MAPPLPPLEPTVKLT) [compound 8]	102	102	90	–	–	–
9 (MAQTMPMYPNGSFFPE) [compound 9]	98	98	90	–	–	–
10 (MATKKNFMEKGTRAGDMGSKPHS) [compound 10]	94	100	87	–	–	–
11 (MAVVDGWVNTWVVPKSASPWKN) [compound 11]	84	96	76	–	–	–
13 (MCSCVYVYSYCKYMVCSHDKP) [compound 13]	92	101	87	–	–	–
14 (MDGCALLAVL) [compound 14]	101	100	120	–	–	–
15 (MDMVPQGKDEKL) [compound 15]	90	96	88	–	–	–
16 (MDSWVVGVNEWG) [compound 16]	89	100	89	–	–	–
18 (MEAMGLAWNQLWGVRFLPFLS) [compound 18]	102	97	99	–	–	–
19 (METDLDYSGLNSDHVGL) [compound 19]	89	94	99	–	–	–

Compound	Percent of Isoproterenol Control Activity (3T3-L1 Mouse Adipocytes) [%]	Percent of Control Activity (C2C12 Cells) [%]	Percent of Control Activity (H4-IIE Cells) [%]	reduction of extracellular glucose compared to untreated controls (C2C12 Cells; metformin 1 mM, across all plates)	Free fatty acid levels (3T3-L1 Mouse Adipocytes; insulin 0.25 nM with 0.1 nM isoproterenol, 3 h)	Glucose levels, % of the untreated control value (H4-IIE Cells; 0.5-1 nM insulin) [%]
20 (MFDQENVVTSTESSPS) [compound 20]	88	102	97	–	–	–
23 (MFHLRYHNHRYPHRRQSI) [compound 23]	94	99	96	–	–	–
24 (MFKLSFYFYVV) [compound 24]	92	94	96	–	–	–
25 (MFLVGWWGMV) [compound 25]	91	97	94	–	–	–
26 (MGACQGGSDESN) [compound 26]	93	99	97	–	–	–
27 (MGCDDNVVDVVVT) [compound 27]	87	95	100	–	–	–
28 (MGCSGSSVSQCYRVHTPQTKMPNAW) [compound 28]	105	100	121	–	–	–
29 (MGDCAVCDA) [compound 29]	90	109	106	–	–	–
30 (MGEGLEENPTNPITKPTLN) [compound 30]	98	102	102	–	–	–
31 (MGEVGLLWLGRI) [compound 31]	78	107	101	–	–	–
32 (MGGEWGMGVWTWGCFLVWM) [compound 32]	94	108	100	–	–	–
33 (MGGGVLLGLQ) [compound 33]	103	111	100	–	–	–
35 (MGGRWGLGWWRAG) [compound 35]	98	108	100	–	–	–
36 (MGLAAVCVCWVGWAGVVLM) [compound 36]	103	106	101	–	–	–
CN(C)C(=N)N=C(N)N [Metformin, reference compound]	–	–	–	50-70%	–	–
insulin [reference compound]	–	–	–	–	at or below levels for unstimulated control without isoproterenol	< 5
